Measured values: PubChem BioAssay (NCI)
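96-well plates; 48 h exposure; 5 concentrations. Endpoints by linear interpolation between flanking doses. Not reached: highest tested concentration assigned. TGI marks complete inhibition of growth.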

Tests used:
Assay in all cases: NCI tumour cell line growth inhibition, 48 h
OVCAR-4 ovarian = system: OVCAR-4 ovarian
SK-MEL-5 melanoma = system: SK-MEL-5 melanoma
SF-539 CNS = system: SF-539 CNS
LOX IMVI melanoma = system: LOX IMVI melanoma
HCT-15 colon = system: HCT-15 colon
RXF 393 renal = system: RXF 393 renal
M19-MEL melanoma = system: M19-MEL melanoma
IGROV1 ovarian = system: IGROV1 ovarian
MOLT-4 leukemia = system: MOLT-4 leukemia
KM20L2 colon = system: KM20L2 colon
EKVX NSCLC = system: EKVX NSCLC
MCF7 breast = system: MCF7 breast
HT29 colon = system: HT29 colon
HL-60(TB) leukemia = system: HL-60(TB) leukemia
SW-620 colon = system: SW-620 colon
SF-295 CNS = system: SF-295 CNS
SF-268 CNS = system: SF-268 CNS
UACC-257 melanoma = system: UACC-257 melanoma
HOP-18 NSCLC = system: HOP-18 NSCLC
OVCAR-3 ovarian = system: OVCAR-3 ovarian
UO-31 renal = system: UO-31 renal
KM12 colon = system: KM12 colon
XF 498 CNS = system: XF 498 CNS
SK-MEL-28 melanoma = system: SK-MEL-28 melanoma
P388/ADR leukemia = system: P388/ADR leukemia
HOP-62 NSCLC = system: HOP-62 NSCLC
CCRF-CEM leukemia = system: CCRF-CEM leukemia
NCI/ADR-RES ovarian = system: NCI/ADR-RES ovarian
SK-OV-3 ovarian = system: SK-OV-3 ovarian
NCI-H226 lung = system: NCI-H226 lung
P388 leukemia = system: P388 leukemia
SN12C renal = system: SN12C renal
K-562 leukemia = system: K-562 leukemia
HCC-2998 colon = system: HCC-2998 colon
COLO 205 colon = system: COLO 205 colon
NCI-H23 lung = system: NCI-H23 lung
DMS 273 small cell lung = system: DMS 273 small cell lung
SNB-19 CNS = system: SNB-19 CNS
A498 renal = system: A498 renal
DMS 114 small cell lung = system: DMS 114 small cell lung
HCT-116 colon = system: HCT-116 colon
NCI-H522 lung = system: NCI-H522 lung
NCI-H460 lung = system: NCI-H460 lung
U251 CNS = system: U251 CNS
SK-MEL-2 melanoma = system: SK-MEL-2 melanoma
SN12K1 renal = system: SN12K1 renal
SNB-75 CNS = system: SNB-75 CNS
UACC-62 melanoma = system: UACC-62 melanoma
OVCAR-8 ovarian = system: OVCAR-8 ovarian
A549 NSCLC = system: A549 NSCLC
MALME-3M melanoma = system: MALME-3M melanoma
OVCAR-5 ovarian = system: OVCAR-5 ovarian
DLD-1 colon = system: DLD-1 colon
RPMI-8226 leukemia = system: RPMI-8226 leukemia
SNB-78 CNS = system: SNB-78 CNS
CAKI-1 renal = system: CAKI-1 renal
HOP-92 NSCLC = system: HOP-92 NSCLC

CSc1nc(SC)c2cnn(CC3CO3)c2n1 (stereo unspecified)
TGI (OVCAR-4 ovarian): 44.2 µM | TGI (SK-MEL-5 melanoma): 17.8 µM | TGI (SF-539 CNS): 38.5 µM | TGI (LOX IMVI melanoma): 19.8 µM | TGI (HCT-15 colon): > 61.4 µM | TGI (RXF 393 renal): 34 µM | TGI (M19-MEL melanoma): 27.1 µM | TGI (IGROV1 ovarian): 38.1 µM | TGI (MOLT-4 leukemia): 7.73 µM | TGI (KM20L2 colon): 43.4 µM | TGI (EKVX NSCLC): > 75.4 µM | TGI (MCF7 breast): 25.7 µM | TGI (HT29 colon): 47.1 µM | TGI (HL-60(TB) leukemia): 45.4 µM | TGI (SW-620 colon): > 44.7 µM | TGI (SF-295 CNS): 55.4 µM | TGI (SF-268 CNS): 33.9 µM | TGI (UACC-257 melanoma): 37.4 µM | TGI (HOP-18 NSCLC): > 100 µM | TGI (OVCAR-3 ovarian): > 65.1 µM | TGI (UO-31 renal): 45 µM | TGI (KM12 colon): 39.2 µM | TGI (XF 498 CNS): 45.4 µM | TGI (SK-MEL-28 melanoma): 18.6 µM | TGI (P388/ADR leukemia): > 57 µM | TGI (HOP-62 NSCLC): 41.2 µM | TGI (CCRF-CEM leukemia): 70.5 µM | TGI (NCI/ADR-RES ovarian): 36.3 µM | TGI (SK-OV-3 ovarian): > 100 µM | TGI (NCI-H226 lung): 38.7 µM | TGI (P388 leukemia): > 54.5 µM | TGI (SN12C renal): > 50.1 µM | TGI (K-562 leukemia): > 100 µM | TGI (HCC-2998 colon): 31.3 µM | TGI (COLO 205 colon): 35.5 µM | TGI (NCI-H23 lung): 34.6 µM | TGI (DMS 273 small cell lung): > 54.6 µM | TGI (SNB-19 CNS): > 100 µM | TGI (A498 renal): > 100 µM | TGI (DMS 114 small cell lung): 32.6 µM | TGI (HCT-116 colon): 31.9 µM | TGI (NCI-H522 lung): 77.3 µM | TGI (NCI-H460 lung): 40.8 µM | TGI (U251 CNS): 45.4 µM | TGI (SK-MEL-2 melanoma): 31.7 µM | TGI (SN12K1 renal): 21.6 µM | TGI (SNB-75 CNS): 44.7 µM | TGI (UACC-62 melanoma): 33.5 µM | TGI (OVCAR-8 ovarian): 15.8 µM | TGI (A549 NSCLC): 64.8 µM | TGI (MALME-3M melanoma): 45.2 µM | TGI (OVCAR-5 ovarian): 41.3 µM | TGI (DLD-1 colon): 53.9 µM | TGI (RPMI-8226 leukemia): > 100 µM

CCOCCOc1ccc(OCCOCC)cc1
TGI (OVCAR-4 ovarian): 20.7 µM | TGI (SK-MEL-5 melanoma): > 54 µM | TGI (LOX IMVI melanoma): 33.8 µM | TGI (HCT-15 colon): 40.3 µM | TGI (RXF 393 renal): 33 µM | TGI (M19-MEL melanoma): > 62.5 µM | TGI (IGROV1 ovarian): 38 µM | TGI (MOLT-4 leukemia): > 43 µM | TGI (KM20L2 colon): 47.2 µM | TGI (MCF7 breast): 32.9 µM | TGI (HT29 colon): 38.9 µM | TGI (HL-60(TB) leukemia): 12.7 µM | TGI (SW-620 colon): 40.1 µM | TGI (SF-295 CNS): > 57.2 µM | TGI (SF-268 CNS): 36 µM | TGI (UACC-257 melanoma): 32.3 µM | TGI (HOP-18 NSCLC): 61.3 µM | TGI (OVCAR-3 ovarian): > 49.3 µM | TGI (UO-31 renal): 26.9 µM | TGI (KM12 colon): > 100 µM | TGI (XF 498 CNS): 30.1 µM | TGI (SK-MEL-28 melanoma): 40.8 µM | TGI (HOP-62 NSCLC): > 100 µM | TGI (CCRF-CEM leukemia): 9.84 µM | TGI (NCI/ADR-RES ovarian): 39.3 µM | TGI (SK-OV-3 ovarian): > 100 µM | TGI (SNB-78 CNS): > 57.7 µM | TGI (NCI-H226 lung): > 73.1 µM | TGI (P388 leukemia): > 100 µM | TGI (SN12C renal): 31.8 µM | TGI (K-562 leukemia): 24.2 µM | TGI (HCC-2998 colon): > 100 µM | TGI (COLO 205 colon): 33.3 µM | TGI (NCI-H23 lung): > 100 µM | TGI (DMS 273 small cell lung): > 58.4 µM | TGI (SNB-19 CNS): > 100 µM | TGI (A498 renal): > 61.8 µM | TGI (DMS 114 small cell lung): 17.1 µM | TGI (HCT-116 colon): 33.4 µM | TGI (NCI-H460 lung): > 73.7 µM | TGI (U251 CNS): > 100 µM | TGI (SK-MEL-2 melanoma): > 63.7 µM | TGI (SN12K1 renal): 31.6 µM | TGI (SNB-75 CNS): 52.8 µM | TGI (UACC-62 melanoma): 38.7 µM | TGI (OVCAR-8 ovarian): 35.4 µM | TGI (A549 NSCLC): > 100 µM | TGI (MALME-3M melanoma): 45.8 µM | TGI (OVCAR-5 ovarian): > 100 µM | TGI (DLD-1 colon): 28.2 µM | TGI (RPMI-8226 leukemia): 26.4 µM

COc1cccc2c1C(=O)c1c(O)c3c(c(O)c1C2=O)CC(O)(C(=O)CO)CC3OC1CC(N)C(I)C(C)O1 (stereo unspecified)
TGI (OVCAR-4 ovarian): 26.9 µM | TGI (SK-MEL-5 melanoma): 14.5 µM | TGI (SF-539 CNS): 11.8 µM | TGI (LOX IMVI melanoma): 9.15 µM | TGI (HCT-15 colon): 14.6 µM | TGI (RXF 393 renal): 25.2 µM | TGI (M19-MEL melanoma): 30.7 µM | TGI (IGROV1 ovarian): 18.4 µM | TGI (MOLT-4 leukemia): > 100 µM | TGI (KM20L2 colon): > 54.2 µM | TGI (EKVX NSCLC): > 55.5 µM | TGI (MCF7 breast): 29.4 µM | TGI (HT29 colon): > 100 µM | TGI (HL-60(TB) leukemia): > 100 µM | TGI (SW-620 colon): > 100 µM | TGI (SF-295 CNS): 23.3 µM | TGI (CAKI-1 renal): > 100 µM | TGI (SF-268 CNS): > 100 µM | TGI (UACC-257 melanoma): > 52.3 µM | TGI (HOP-18 NSCLC): 65.7 µM | TGI (OVCAR-3 ovarian): > 57.6 µM | TGI (UO-31 renal): 17.5 µM | TGI (KM12 colon): > 100 µM | TGI (XF 498 CNS): 22.2 µM | TGI (HOP-92 NSCLC): > 63 µM | TGI (SK-MEL-28 melanoma): > 100 µM | TGI (P388/ADR leukemia): > 20.1 µM | TGI (HOP-62 NSCLC): 13.9 µM | TGI (CCRF-CEM leukemia): > 100 µM | TGI (NCI/ADR-RES ovarian): > 31.6 µM | TGI (SK-OV-3 ovarian): 18.6 µM | TGI (SNB-78 CNS): > 100 µM | TGI (NCI-H226 lung): 2.95 µM | TGI (SN12C renal): > 63.8 µM | TGI (K-562 leukemia): > 100 µM | TGI (HCC-2998 colon): 27.1 µM | TGI (COLO 205 colon): > 100 µM | TGI (NCI-H23 lung): 15.1 µM | TGI (DMS 273 small cell lung): 7.03 µM | TGI (SNB-19 CNS): > 100 µM | TGI (A498 renal): 21.4 µM | TGI (DMS 114 small cell lung): > 30.2 µM | TGI (HCT-116 colon): 6.12 µM | TGI (NCI-H522 lung): > 100 µM | TGI (NCI-H460 lung): 12.6 µM | TGI (U251 CNS): 19.3 µM | TGI (SK-MEL-2 melanoma): 30.4 µM | TGI (SN12K1 renal): > 37.2 µM | TGI (SNB-75 CNS): > 100 µM | TGI (UACC-62 melanoma): 7.43 µM | TGI (OVCAR-8 ovarian): 34.1 µM | TGI (A549 NSCLC): > 55.1 µM | TGI (MALME-3M melanoma): 25.1 µM | TGI (OVCAR-5 ovarian): > 54.6 µM | TGI (DLD-1 colon): 13.7 µM | TGI (RPMI-8226 leukemia): > 100 µM
